Columns and labels:
NOX2 = biological target: T1, NOX2 (Homo sapiens, UniProt P14598); assay: NADPH oxidase (NOX2) inhibition, DCF fluorescence in PMA-activated neutrophil-differentiated HL-60 cells; assay type: cell-based; details: for inhibition of NOX2-derived ROS production (in words): PMA-activated HL-60 cells, 0.05 µM to 50 µM; for IC50: neutrophil-differentiated HL-60 cells, PMA 0.8 µM, DCF fluorescence, 0.05 to 50 µM
T1 construct: HL-60 cells expressed the components of NOX2, including gp91, p22^phox, p47^phox, and p67^phox; endogenous in cells; whole cells in A1, membrane preparations in A3 and A4
T1 sequence (P14598 1-390): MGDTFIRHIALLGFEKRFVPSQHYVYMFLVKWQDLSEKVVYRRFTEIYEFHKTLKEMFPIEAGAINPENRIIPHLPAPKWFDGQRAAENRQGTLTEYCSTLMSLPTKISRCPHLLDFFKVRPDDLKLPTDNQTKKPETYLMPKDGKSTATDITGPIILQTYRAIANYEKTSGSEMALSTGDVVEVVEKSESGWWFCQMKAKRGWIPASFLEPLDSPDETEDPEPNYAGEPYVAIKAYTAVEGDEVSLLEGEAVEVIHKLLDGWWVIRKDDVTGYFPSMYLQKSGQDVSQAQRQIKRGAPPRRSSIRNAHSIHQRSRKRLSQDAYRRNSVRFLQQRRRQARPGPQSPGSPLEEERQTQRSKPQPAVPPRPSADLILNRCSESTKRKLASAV
Method: The differentiation of HL-60 cells to neutrophils was performed after reaching a concentration of between 2 × 10^6 and 5 × 10^6 cells/mL in the differentiation medium: RPMI 1640 medium; 10% FBS; 100 IU/mL of penicillin/streptomycin; and 1.3% DMSO for 7 days, replenishing the differentiation medium every 2 days.
The 2′,7′-dichlorofluorescein (DCF) fluorescence analysis was used to determine NADPH oxidase activity in neutrophil-differentiated HL-60 cells. The method, based on a fluorimetric assay, was adapted from Boly et al.. Briefly, 1 × 10^6 neutrophil-differentiated HL-60 cells/mL were incubated for 45 min. at 37 °C in darkness with DCF-DA (1 mg/mL). The cell suspension was then transferred to a 15 mL conical tube and centrifuged at 330× g × 10 min at 37 °C. After the supernatant was removed, the cells were re-suspended in Hanks balanced saline buffer (HBSS, Sigma-Aldrich, St. Louis, MO, USA) and transferred to dark 96-well plates with a flat glass bottom (Thermo Scientific Nunc 96 microwell® black, Optical Botton # 1.5 Cover Glass Base, Thermo Fisher Scientific). Then, 200 μL of cell suspension per well were incubated at 37 °C for 30 min with the indole heteroaryl-acrylonitriles at increasing concentrations (0.05 to 50 μM). […] Finally, PMA (0.8 μM) was added to each well for 10 min. to generate the activation of NOX2. The generation of the DCF fluorescence product was monitored in an automatic microplate reader (FLx800, BioTek Instruments, Winooski, VT, USA) at 1-min intervals at 37 °C for 1 h, using an excitation wavelength of 485 nm and an emission wavelength of 555 nm. The ability to inhibit ROS production by activated neutrophil-differentiated HL-60 cells was compared against the different controls. A control was performed with cells activated by PMA in the presence of DMSO and established as having 100% of the ROS-induced fluorescence. Inhibition control was performed in the presence of VAS2870 (20 µM) and activated by PMA. Another control (NA, not activated) was done with cells in the absence of PMA and the indole heteroaryl-acrylonitriles.
All the experiments were performed in triplicate, using three different cell preparations, and the data were reported as mean ± s.e.m. For the determination of the IC50 of the indole heteroaryl-acrylonitriles, concentration-response curves (0.05 to 50 μM) were constructed. IC50 values were given as the mean ± standard deviation for at least three independent assays. The data were analyzed using one- and two-way ANOVA. A value of p < 0.05 was considered statistically significant. Statistical analyses were performed using the program GraphPad Prism® version 6.00, San Diego, CA, USA.

NADPH oxidase (NOX2) = biological target: T2, NADPH oxidase (NOX2) (Homo sapiens, UniProt P14598); assay: NOX2 activity by cytochrome C reduction in HL-60 membrane preparations; assay type: biochemical; details: HL-60 membrane homogenates, increasing concentrations
T2 construct: HL-60 cells expressed the components of NOX2, including gp91, p22^phox, p47^phox, and p67^phox; endogenous in cells; whole cells in A1, membrane preparations in A3 and A4
T2 sequence (P14598 1-390): T1 sequence (P14598 1-390)
Method: Neutrophil-differentiated HL-60 cells (2 × 10^6 cells/mL) […], then PMA 0.8 μM was added and incubated for 1 h to induce the activation of the enzyme NADPH oxidase. As a positive inhibition control, VAS2870 (20 μM) was used. Another two controls were performed: one with cells activated by PMA in the presence of DMSO, and the other (NA, non-activated) with cells in the absence of PMA and the acrylonitrile compounds. In 15 mL conical tubes, 5 mL of cell suspension from each treatment and control condition was transferred at 2 × 10^6 cells/mL and centrifuged at 1000 rpm at 4 °C for 10 min. […]
The membrane preparations from the neutrophil-differentiated HL-60 cells, treated with the different indole heteroaryl-acrylonitrile derivatives, were re-suspended in PBS with 10 μL/mL of the protease inhibitor cocktail (in mM): 104 (4-(2-aminoethyl)benzenesulfonylfluoride hydrochloride); 1.4 N-(trans-epoxysuccinyl)-L-leucine-4-guanidinobutyric; 2 leupeptin hemisulfate; 4 bestatin hydrochloride; 1.5 pepstatin A; and 80 μM aprotinin. Total proteins were quantified by the bicinchoninic acid (BCA) method using the commercial kit BCA™ (Thermo Scientific Pierce™, Rockford, IL, USA), using BSA as a standard. […] The reaction was monitored at 550 nm for 30 min at 25 °C using PBS as a blank.

Structure (SMILES) | inhibition of NOX2-derived ROS production (in words) (NOX2) | IC50 (NOX2) | superoxide production, cytochrome C reduction (in words) (NADPH oxidase (NOX2))
N#C/C(=C\c1cc(-c2ccccc2)on1)C(=O)c1c[nH]c2ccccc12 [Compound C6] | exhibited concentration-dependent inhibition of NOX2 | 1.1 ± 0.2 µM | reduced superoxide production in a concentration-dependent manner
N#C/C(=C\c1ccncc1)C(=O)c1c[nH]c2ccccc12 [Compound C14] | exhibited concentration-dependent inhibition of NOX2 | 3.6 ± 0.2 µM | reduced superoxide production in a concentration-dependent manner
